Measured values taken from patent publication US8354387B2, “Methods and compositions for delivering siRNA into mammalian cells” (Centre National de la Recherche Scientifique, priority 2004, dated 2013).

Experiments:
[1] = test system: 15PC3 cells or A549 cells (human bronchoalveolar carcinoma) tumors; assay: Tumour growth after intratumoral injection in Swiss nude mice; format: in vivo; details: 20 days after injection
Method: FIG. 8: Cyclin-B1 siRNA inhibits tumour growth. Mice were infected subcutaneously with 15PC3 cells (ATCC no CRL-1435). One week later, MPG/siRNA complexes were injected directly into the tumour, at different concentrations (1 μg, 5 μg, 10 μg, in 50 μl of PBS).
Cyclin B1 siRNA inhibits tumor growth: In vivo injections and tumors analysis. Five weeks old female Swiss nude nice were injected subcutaneously with 2×10^7 15PC3 cells or A549 cells (n^o ATCC CCL-185) (human bronchoalveolar carcinoma). When tumors reached a mean volume of 50 to 100 mm^3, (a week later), mice were injected intra-tumorally or sub-tumorally with 50 μl of PBS containing anti cyclin B1 siRNA (1, 5, 10 μg) or scrambled siRNA (50 μg) complexed with MPG or siRNA (50 μg). 50 μl of PBS was used as a control. Tumor volume was measured with calipers every two days. A second injection was performed after 10 days and tumor size was measured after 20 days.
As delivery of siRNA directed against cyclin B1 blocked proliferation of cancer cells, the role of siRNA/MPG formulation to block tumor growth in vivo. The effect of the cyclin B1 siRNA was investigated on tumor animal model (FIG. 8), using Swiss nude nice, injected subcutaneously with 2×10^7 15PC3 cells or A549 cells (human bronchoalveolar carcinoma). Different MPG/siRNA complexed were injected intratumorally and monitoring tumor volumes followed the effect of siRNA.

[2] = test system: mammalian cells; details: single- and double-stranded oligonucleotides; cited from earlier work
[3] = test system: GAPDH; assay: GAPDH protein levels by Western blotting after siRNA transfection; format: cell-based, human; details: for reduction of GAPDH protein levels: Hs68, 30 hrs post transfection
Method: FIG. 4: MPG-mediated delivery of siRNA induces a robust biological response. A/ MPG mediated delivery of siRNA targeting luciferase gene. MPG/siRNA or MPG^ΔNLS/DNA complexes were formed in DMEM at a charge ratio 10:1 and incubated for 30 min at 37° C., then overlaid onto Cos-7 or HeLa cells grown to 60% confluence and previously transfected with the pRL-SV40 plasmid (Promega) encoding the reporter gene luciferase under control of an SV40 promoter. After 30 min incubation at 37° C., 1 ml of fresh DMEM supplemented with 10% fetal calf serum was added onto the cells. Luciferase activity was measured 48 hrs after transfection. Transfections were also performed with Oligofectamine™ as a standard. Control experiments were performed with either naked siRNA or using a mismatch siRNA (dashed bars). B/ MPG-mediated delivery of siRNA targeting GAPDH gene: Western blot analysis. Different concentrations of siRNA (25, 50, 100 nM) were transfected with either MPG or MPG^ΔNLS and the levels of GAPDH protein were analyzed by Western blotting 30 hrs post transfection. Actin was used as a control to normalize protein loading. C/ MPG-mediated delivery of siRNA targeting GAPDH gene: Northern blot analysis. The kinetics of siRNA (50 nM)-induced degradation of GAPDH mRNA following transfection with either MPG or MPG^ΔNLS were analyzed by Northern blotting. Actin was used as a control to normalize mRNA levels in each sample. […]
To further understand the impact of the NLS in MPG, we examined the biological response of an siRNA targeting the GAPDH gene following transfection into human fibroblasts (Hs68). […] Different concentrations of siRNA (25, 50, 100 nM) were transfected with either MPG or MPG^ΔNLS and the levels of GAPDH protein were analyzed by Western blotting 30 hrs post transfection. […] The kinetics of siRNA-induced degradation of GAPDH mRNA following transfection with either MPG or MPG^ΔNLS were analyzed by Northern blotting. […]

Sequence: GALFLGFLGAAGSTMGAWSQPKKKRKV (carrier peptide) [MPG, bipartite amphipathic peptide derived from fusion peptide domain of HIV-1 gp41 and NLS of SV40 large T antigen]
- tumor size increase [1]: 2.5 fold
- time to deliver oligonucleotides into mammalian cells [2]: < 1 h
- reduction of GAPDH protein levels ([3]; 100 nM siRNA): 60%

Sequence: GALFLGFLGAAGSTMGAWSQPKSKRKV (carrier peptide) [MPG^ΔNLS, MPG variant with single mutation of the second lysine residue in the NLS motif to serine]
- reduction of GAPDH protein levels ([3]; 25 nM siRNA): 80%
- efficiency relative to wild-type MPG ([3]; GAPDH siRNA, Hs68): at least 2 fold
